Data reported in US7598382B2, “Aryl substituted imidazoquinolines” (Coley Pharmaceutical Group, Inc., priority 2002, dated 2009).

Structure (SMILES)	melting point [°C]
CCCOc1ccc(-c2cccc3nc(N)c4ncn(CC(C)C)c4c23)cc1 [Example 483, 1-(2-Methylpropyl)-9-(4-propoxyphenyl)-1H-imidazo[4,5-c]quinolin-4-amine]	181 to 182
CCOCc1nc2c(N)nc3cc(-c4cccc(C(=O)O)c4)ccc3c2n1CC(C)(C)O [Example 135, 3-[4-Amino-2-ethoxymethyl-1-(2-hydroxy-2-methylpropyl)-1H-imidazo[4,5-c]quinolin-7-yl]benzoic acid]	> 250
COCCc1nc2c(N)nc3cc(-c4ccncc4)ccc3c2n1CCCN1CCCC1=O [Example 184, 1-{3-[4-Amino-2-(2-methoxyethyl)-7-(pyridin-4-yl)-1H-imidazo[4,5-c]quinolin-1-yl]propyl}pyrrolidin-2-one]	232 to 235
CCc1nc2c(N)nc3cc(-c4cccnc4)ccc3c2n1CC1CCN(C(=O)OC(C)(C)C)CC1 [Example 404, tert-Butyl 4-{[4-amino-2-ethyl-7-(pyridin-3-yl)-1H-imidazo[4,5-c]quinolin-1-yl]methyl}piperidine-1-carboxylate]	229 to 231
CCOCc1nc2c(N)nc3cc(-c4cccnc4)ccc3c2n1CCCCNS(C)(=O)=O (hydrate or solvate) [Example 375, N-{4-[4-Amino-2-ethoxymethyl-7-(pyridin-3-yl)-1H-imidazo[4,5-c]quinolin-1-yl]butyl}methanesulfonamide]	186 to 188
CCOCc1cncc(-c2ccc3c(c2)nc(N)c2nc(COCC)n(CC(C)(C)O)c23)c1 [Example 134, 1-[4-Amino-2-ethoxymethyl-7-(5-ethoxymethylpyridin-3-yl)-1H-imidazo[4,5-c]quinolin-1-yl]-2-methylpropan-2-ol]	156 to 156.5
CCCNC(=O)NCCCCn1c(COCC)nc2c(N)nc3cc(-c4cccnc4)ccc3c21 [Example 378, N-{4-[4-Amino-2-ethoxymethyl-7-(pyridin-3-yl)-1H-imidazo[4,5-c]quinolin-1-yl]butyl}-N′-propylurea]	191 to 193
CC(C)Cn1cnc2c(N)nc3ccc(-c4ccc(C(C)(C)C)cc4)cc3c21 [Example 11, 8-(4-tert-Butylphenyl)-1-isobutyl-1H-imidazo[4,5-c]quinolin-4-amine]	> 250
CC(C)Cn1cnc2c(N)nc3ccc(C=Cc4ccccc4)cc3c21 [Example 122, 1-(2-Methylpropyl)-8-styryl-1H-imidazo[4,5-c]quinolin-4-amine]	228 to 230
CCOCc1nc2c(N)nc3cc(-c4cccnc4)ccc3c2n1C[C@@H](O)CO [Example 488, (R)-3-[4-Amino-2-ethoxymethyl-7-(pyridin-3-yl)-1H-imidazo[4,5-c]quinolin-1-yl]propane-1,2-diol]	202 to 204
CCCCc1nc2c(N)nc3cc(-c4ccc(C(C)(C)C)cc4)ccc3c2n1CC(C)C [Example 4, 2-Butyl-7-(4-tert-butylphenyl)-1-isobutyl-1H-imidazo[4,5-c]quinolin-4-amine]	219 to 220
CCOCc1nc2c(N)nc3cc(-c4ccccc4)ccc3c2n1CC1CCN(C(=O)C(C)C)CC1 (hydrate or solvate) [Example 194, 2-Ethoxymethyl-1-[(1-isobutyrylpiperidin-4-yl)methyl]-7-phenyl-1H-imidazo[4,5-c]quinolin-4-amine]	156 to 158
CCOCc1nc2c(N)nc3cc(-c4cccnc4)ccc3c2n1CC1CCOCC1 (hydrate or solvate) [Example 479, 2-Ethoxymethyl-7-(pyridin-3-yl)-1-(tetrahydropyran-4-ylmethyl)-1H-imidazo[4,5-c]quinolin-4-amine]	116 to 121
COCCc1nc2c(N)nc3cc(-c4cccc(CO)c4)ccc3c2n1CCCN1CCCC1=O (hydrate or solvate) [Example 185, 1-{3-[4-Amino-7-(3-hydroxymethylphenyl)-2-(2-methoxyethyl)-1H-imidazo[4,5-c]quinolin-1-yl]propyl}pyrrolidin-2-one]	184 to 187
CCOCc1nc2c(N)nc3cc(-c4cccnc4)ccc3c2n1CC(C)C [Example 113, 2-Ethoxymethyl-1-(2-methylpropyl)-7-(pyridin-3-yl)-1H-imidazo[4,5-c]quinolin-4-amine]	179.5 to 181.5
CCOCc1nc2c(N)nc3cc(-c4ccccc4)ccc3c2n1CCCN1CCCC1=O [Example 205, 1-[3-(4-Amino-2-ethoxymethyl-7-phenyl-1H-imidazo[4,5-c]quinolin-1-yl)propyl]pyrrolidin-2-one]	199 to 203
COCCc1nc2c(N)nc3ccc(-c4cccnc4)cc3c2n1CCCN1CCCC1=O [Example 188, 1-{3-[4-Amino-2-(2-methoxyethyl)-8-(pyridin-3-yl)-1H-imidazo[4,5-c]quinolin-1-yl]propyl}pyrrolidin-2-one]	221 to 224
COCCc1nc2c(N)nc3cc(-c4ccccc4)ccc3c2n1CCCN1CCCC1=O [Example 206, 1-{3-[4-Amino-2-(2-methoxyethyl)-7-phenyl-1H-imidazo[4,5-c]quinolin-1-yl]propyl}pyrrolidin-2-one]	187 to 191

Structure (SMILES)	melting point [°C]
CCCc1nc2c(N)nc3cc(/C=C/c4ccc5sc(C)nc5c4)ccc3c2n1CC(C)C [Example 441, (E)-7-[2-(2-Methylbenzothiazol-5-yl)vinyl]-1-(2-methylpropyl)-2-propyl-1H-imidazo[4,5-c]quinolin-4-amine]	210 to 212
CCOCc1nc2c(N)nc3cc(-c4ccsc4)ccc3c2n1CC(C)C [Example 9, 2-Ethoxymethyl-1-isobutyl-7-(thiophen-3-yl)-1H-imidazo[4,5-c]quinolin-4-amine]	187 to 189
CCCCCCCCCCCCCCCC(=O)N1CCC(Cn2c(COCC)nc3c(N)nc4cc(-c5cccnc5)ccc4c32)CC1 (hydrate or solvate) [Example 181, 2-Ethoxymethyl-1-[(1-palmitoylpiperidin-4-yl)methyl]-7-(pyridin-3-yl)-1H-imidazo[4,5-c]quinolin-4-amine]	72 to 75
CCCc1nc2c(N)nc3cc(-c4ccccc4)ccc3c2n1CC(C)(C)NS(C)(=O)=O [Example 200, N-[2-(4-Amino-7-phenyl-2-propyl-1H-imidazo[4,5-c]quinolin-1-yl)-1,1-dimethylethyl]methanesulfonamide]	135 to 141
CCOCc1nc2c(N)nc3cc(-c4ccccc4)ccc3c2n1CC1CCN(C(=O)N2CCOCC2)CC1 [Example 195, 2-Ethoxymethyl-1-{[1-(morpholin-4-ylcarbonyl)piperidin-4-yl]methyl}-7-phenyl-1H-imidazo[4,5-c]quinolin-4-amine]	208 to 209
CCOCc1nc2c(N)nc3cc(-c4cccnc4)ccc3c2n1CC1CCCCN1S(C)(=O)=O (stereo not drawn) [Example 492, 2-Ethoxymethyl-1-{[1-(methanesulfonyl)piperidin-2-yl]methyl}-7-(pyridin-3-yl)-1H-imidazo[4,5-c]quinolin-4-amine]	152 to 154
CCCc1nc2c(N)nc3cc(-c4cccnc4)ccc3c2n1CCCCNC(=O)NC(C)C (hydrate or solvate) [Example 385]	173 to 175
CCOCc1nc2c(N)nc3cc(-c4cccnc4)ccc3c2n1CCN1CCCS1(=O)=O [Example 389, 1-[2-(1,1-Dioxo-1-isothiazolidin-2-yl)ethyl]-2-ethoxymethyl-7-(pyridin-3-yl)-1H-imidazo[4,5-c]quinolin-4-amine]	244 to 246
COCCc1nc2c(N)nc3cc(-c4cccnc4)ccc3c2n1CC(C)(C)O [Example 138, 1-[4-Amino-2-(2-methoxyethyl)-7-(pyridin-3-yl)-1H-imidazo[4,5-c]quinolin-1-yl]-2-methylpropan-2-ol]	158 to 160
COCCc1nc2c(N)nc3cc(-c4cncc(CO)c4)ccc3c2n1CC(C)(C)O [Example 141, 1-[4-Amino-7-(5-hydroxymethylpyridin-3-yl)-2-(2-methoxyethyl)-1H-imidazo[4,5-c]quinolin-1-yl]-2-methylpropan-2-ol]	210 to 211
CCOCc1nc2c(N)nc3ccc(Cc4ccccc4)cc3c2n1CC(C)(C)O [Example 436, 1-(4-Amino-8-benzyl-2-ethoxymethyl-1H-imidazo[4,5-c]quinolin-1-yl)-2-methylpropan-2-ol]	209 to 210
CCCCc1nc2c(N)nc3cc(-c4ccc(OC)cc4OC)ccc3c2n1CC(C)C [Example 3, 2-Butyl-7-(2,4-dimethoxyphenyl)-1-isobutyl-1H-imidazo[4,5-c]quinolin-4-amine]	187 to 189
CCOCc1nc2c(N)nc3cc(-c4cn[nH]c4)ccc3c2n1CC(C)(C)O [Example 128, 1-[4-Amino-2-ethoxymethyl-7-(1H-pyrazol-4-yl)-1H-imidazo[4,5-c]quinolin-1-yl]-2-methylpropan-2-ol]	> 250
CCCCc1nc2c(N)nc3cc(/C=C/c4ccccc4)ccc3c2n1CC(C)C [Example 7, 2-Butyl-1-isobutyl-7-[(E)-2-phenylethenyl]-1H-imidazo[4,5-c]quinolin-4-amine]	215 to 216
CCCCc1nc2c(N)nc3cc(-c4ccccc4OCCC)ccc3c2n1CC(C)C [Example 6, 2-Butyl-1-isobutyl-7-(2-propoxyphenyl)-1H-imidazo[4,5-c]quinolin-4-amine]	174.5 to 176
CCCCc1nc2c(N)nc3cc(-c4cccnc4)ccc3c2n1CCNC(=O)C(C)C [Example 390, N-{2-[4-Amino-2-butyl-7-(pyridin-3-yl)-1H-imidazo[4,5-c]quinolin-1-yl]ethyl}-2-methylpropanamide]	228 to 230
CCOCc1nc2c(N)nc3cc(-c4cncc(CO)c4)ccc3c2n1CC(C)(C)O [Example 133, 1-[4-Amino-2-ethoxymethyl-7-(5-hydroxymethylpyridin-3-yl)-1H-imidazo[4,5-c]quinolin-1-yl]-2-methylpropan-2-ol]	188 to 190
CCOCc1nc2c(N)nc3cc(-c4ccncc4)ccc3c2n1CC(C)(C)O [Example 127, 1-[4-Amino-2-ethoxymethyl-7-(pyridin-4-yl)-1H-imidazo[4,5-c]quinolin-1-yl]-2-methylpropan-2-ol]	220 to 221
